{"source": "patent US8084625B2", "about": "“Crosslinking agent, crosslinking method, method of controlling gene expression, and method of examining gene function” (Wako Pure Chemical Industries, Ltd., priority 2005, dated 2011)", "key": {"EGFP [1]": {"test_system": "EGFP", "test": "Effectiveness versus bis-Bhc-CH3 and Bhc-diazo, EGFP/DsRed cotransfection in Hela cells (Example 7)", "assay_type": "cell-based", "method": "(§1) As shown in the following Table 5, 0.2 μl of the crosslinking agent solution and 0.20 μl of the siRNA solution were mixed together, and the mixture thus obtained was still held for 8 hours under light shielding conditions. Subsequently, Nos. 2, 4, and 6 were irradiated with UV (350 nm) for 3 minutes using Rayonet Photochemical Reactor manufactured by Southern N. E. Ultraviolet Co."}, "EGFP [2]": {"test_system": "EGFP", "test": "RNAi-effect inhibitory ability, EGFP/DsRed cotransfection in Hela cells (Example 5)", "assay_type": "cell-based", "conditions": "crosslinking agent solution 4 μM reacted with siRNA 8 hours, no UV irradiation, 48 hours culture", "method": "(§2) (1) Reagents • Hela cells (American Type Culture Collection (ATCC, Rockville, Md.)) • DMEM culture medium (Dullbecco's modified Eagle culture medium, Nissui 2, manufactured by Nissui Pharmaceutical Co., Ltd.) • Opti-MEM culture medium (manufactured by GIBCO) • Trypsin solution (0.38 mg/ml EDTA aqueous solution containing 2.5 mg of trypsin, manufactured by GIBCO) • LipofectAMINE 2000 (manufactured by Invitrogen) • pEGFP-N1 vector solution\n(§3) Hela cells (500 μl of the DMEM culture medium containing Hela cells and 10% of FBS) were spread on a 24-hole plate so as to obtain 3×10^4 cells/well. After 24 hours passed, the old culture medium was removed, and Hela cells were then washed with a PBS(−) solution. Subsequently, the PBS(−) solution was removed, and 500 μl of the DMEM culture medium containing 10% of FBS was added per one well. This was used as a transfection Hela cell plate.\nas §1, with “2,” for “5,”, “Co. […]” for “Co.”"}, "EGFP [3]": {"test_system": "EGFP", "test": "Study in cell: local UV irradiation of transfected Hela cells, EGFP/DsRed (Example 8)", "assay_type": "cell-based", "method": "as §3, with “of” for “of the”, “DMEM” for “DMEM culture medium”, “5×10^3” for “3×10^4”, “were” for “were then”\n(§4) To 9.2 μl of the Opti-MEM culture medium, 0.8 μl of LipofectAMINE 2000 was added, and the culture medium thus processed was still held for 10 minutes.\nNext, the above culture medium and the transfecting sample obtained by the above ii) were mixed together, and this mixture was still held for 20 minutes.\n(§5) The mixture thus obtained was added to the transfection Hela cell plate prepared by the above (2) and was then cultured at 37° C. for 6 hours using a CO2 incubator (Automatic CO2 Incubators 5400, manufactured by NAPCO).\n(§6) After the culture was performed, the culture medium was removed, and Hela cells were washed with a PBS(−) solution. Subsequently, the PBS(−) solution was removed, and 500 μl of the Opti-MEM culture medium was added per one well. […]\nIn addition, the observation results of the fluorescence images of EGFP and DsRed obtained by using the compound 3 of the present invention are shown in FIG. 6."}, "EGFP [4]": {"test_system": "EGFP", "test": "Influence of light irradiation and compound on RNAi, control siRNA (targeting luciferase), EGFP/DsRed in Hela cells (Example 9)", "assay_type": "cell-based", "method": "The expression level obtained by transfection of siRNA which reacted with the compound of the present invention was low as that obtained by transfection of only EGFP. In order to investigate this reason, it was confirmed whether the transfection efficiency was degraded by the compound of the present invention or by the transfection itself of siRNA.\nAs shown in the following Table 8, 0.2 μl of the crosslinking agent solution and 0.20 μl of the siRNA solution or 0.20 μl of the control siRNA solution were mixed together, and the mixture thus obtained was still held for 8 hours under light shielding conditions.\nas §4\nNext, the above culture medium and the transfecting sample obtained by the above ii) or the control sample were mixed together, and this mixture was still held for 20 minutes.\nas §5, §6"}, "Lamin B1": {"test_system": "Lamin B1", "test": "Light irradiation control of endogenous gene, Western blotting of Lamin B1 protein in Hela cells (Example 10)", "assay_type": "cell-based", "method": "as §2, with “Md.)” for “Md.))”, “siRNA” for “pEGFP-N1 vector”\nas §3, with “of” for “of the”, “DMEM” for “DMEM culture medium”, “1×10^3” for “3×10^4”\nMixing between 4.6 μl of the crosslinking agent solution and 0.46 μl of the siRNA solution was performed, and the mixture thus obtained was still held for 8 hours under light shielding conditions.\nAfter the culture was performed, by a Western blotting method, the amounts of a Lamin B1 protein of the individual samples were quantitatively measured. […]\nIn addition, from the results of the Western blotting, the amounts of the Lamin B1 protein of the samples were quantitatively measured. […]"}, "EGFP [5]": {"test_system": "EGFP", "conditions": "compound 3 4 μM", "experimental": "The crosslinking agent solution in an amount of 0.2 μl and the siRNA solution in an amount of 0.20 μl were mixed together, and the mixture thus formed was still held for 0, 1, 2, 4, 8, or 24 hours under light shielding conditions.\nAfter the culture was performed, transmission images of cells, and fluorescent images of EGFP and DsRed were observed.\nBy using a Meta Morph Analysis software (manufactured by Meta Imaging Software), the total fluorescent areas of the respective EGFP and DsRed were measured, and the ratio of EGFP/DsRed was obtained."}, "[6]": {"conditions": "Hela cells, regardless before and after UV irradiation, bis-Bhc-CH3 4 μM, Bhc-diazo 8 μM"}}, "note": "Entries after “also recorded” stand apart in the source; their conditions may differ."}
{"molecule": "[N-]=[N+]=Cc1cc(=O)oc2cc(O)c(Br)cc12", "note": "[Bhc-diazo, 6-bromo-7-hydroxy-4-methyldiazocumarine]", "values": [{"measurement": "binding to / crosslinking of siRNA", "setting": "EGFP [1]", "value": "could not crosslink two chains of siRNA"}, {"measurement": "inhibition of the siRNA effect (relative EGFP expression level)", "setting": "EGFP [1]; [6]", "value": "the siRNA effect could be hardlyinhibited"}]}
{"molecule": "Cc1cc(=O)oc2cc(OC(=O)CC(C)(C)CC(=O)OCCOC(=O)CC(C)(C)CC(=O)Oc3cc4oc(=O)cc(C)c4cc3Br)c(Br)cc12", "note": "[bis-Bhc-CH3, 3,3-dimethylglutaric acid (6-bromo-4-methyl-2-oxo-2H-chromen)-7-yl 2-[4-(6-bromo-4-methyl-2-oxo-2H-chromen-7-yloxycarbonyl)-3,3-dimethylbutyryloxy]ethyl ester]", "values": [{"measurement": "binding to / crosslinking of siRNA", "setting": "EGFP [1]", "value": "could not be bound to siRNA"}, {"measurement": "inhibition of the siRNA effect (relative EGFP expression level)", "setting": "EGFP [1]; [6]", "value": "the siRNA effect could be hardlyinhibited"}]}
{"molecule": "[N-]=[N+]=Cc1cc(=O)oc2cc(OC(=O)CCCC(=O)OCCOC(=O)CCCC(=O)Oc3cc4oc(=O)cc(C=[N+]=[N-])c4cc3Br)c(Br)cc12", "note": "[compound 2 of the present invention, Glutaric acid (6-bromo-4-diazomethyl-2-oxo-2H-chromen)-7-yl 2-[4-(6-bromo-4-diazomethyl-2-oxo-2H-chromen-7-yloxycarbonyl)butyryloxy]ethyl ester]", "values": [{"measurement": "inhibition of the RNAi effect of siRNA (relative EGFP expression level)", "setting": "EGFP [2]", "value": "superior effect of inhibiting the RNAi effect"}]}
{"molecule": "CC(C)(CC(=O)OCCOC(=O)CC(C)(C)CC(=O)Oc1cc2oc(=O)cc(C=[N+]=[N-])c2cc1Br)CC(=O)Oc1cc2oc(=O)cc(C=[N+]=[N-])c2cc1Br", "note": "[compound 3 of the present invention, 3,3-dimethylglutaric acid (6-bromo-4-diazomethyl-2-oxo-2H-chromen)-7-yl 2-[4-(6-bromo-4-diazomethyl-2-oxo-2H-chromen-7-yloxycarbonyl)-3,3-dimethylbutyryloxy]ethyl ester]", "values": [{"measurement": "inhibition of the RNAi effect of siRNA (relative EGFP expression level)", "setting": "EGFP [2]", "value": "superior effect of inhibiting the RNAi effect; also recorded: most superior effect"}, {"measurement": "inhibition of the siRNA effect (relative EGFP expression level)", "setting": "EGFP [1]; Hela cells, 4 μM, UV irradiation not performed", "value": "could inhibit the siRNA effect"}, {"measurement": "effect of UV irradiation on the inhibition of the siRNA effect", "setting": "EGFP [1]; Hela cells, UV (350 nm) for 3 minutes", "value": "the inhibition was broken down by UV irradiation"}, {"measurement": "RNAi effect of siRNA at a portion not irradiated with UV", "setting": "EGFP [3]; Hela cells transfected with siRNA crosslinked by compound 3", "value": "the RNAi effect of siRNA was inhibited"}, {"measurement": "RNAi effect of siRNA at a portion irradiated with UV", "setting": "EGFP [3]; Hela cells, UV (335 to 385 nm) for 1 second at the center of the well, 42 hours culture", "value": "the RNAi effect of siRNA was restored"}, {"measurement": "EGFP expression rate with control siRNA crosslinked by the compound versus control siRNA only", "setting": "EGFP [4]", "value": "approximately equivalent to each other"}, {"measurement": "restoration of the inhibited RNAi effect on Lamin B1 expression by UV irradiation", "setting": "Lamin B1; UV irradiation as in Example 8", "value": "could be restored"}, {"measurement": "inhibition of the RNAi effect of siRNA on Lamin B1 expression", "setting": "Lamin B1; compound 3 bound to siRNA, no UV", "value": "the RNAi effect of siRNA could be inhibited"}, {"measurement": "crosslinking of siRNA when the reaction time is short", "setting": "EGFP [5]; reaction time short (0, 1, 2, 4 hours tested)", "value": "could not be sufficiently crosslinked"}, {"measurement": "reaction time at which the reaction between crosslinking agent and siRNA reached a plateau", "setting": "EGFP [5]; reaction times 0-24 hours, no significant difference between 8 and 24 hours", "value": "approximately 8 hours"}]}
